One experiment concerns the target cGAS (Homo sapiens (Human), UniProt Q8N884). As to the kind of experiment: Human cGAS enzyme assay (hcGAS IC50, in vitro), cGAMP formation by RapidFire MS.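 Also: enzyme activated by 45 bp dsDNA with GTP and ATP (30 µM each), 60 min compound pre-incubation then 90 min reaction, cGAMP relative to cyclic-di-GMP internal standard, 8-point dilutions up to 10 µM.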 The experiment is classed as biochemical. The settings on record: biochemical (in vitro) cGAS inhibition.
Experiment [1] concerns cellular cGAS activity in baculovirus-stimulated THP1-Dual cells (IRF dependent Lucia luciferase reporter). As to the kind of experiment: Human cGAS cell assay: inhibition of IFN induction in virus-stimulated THP1 cells (THP1(vir) IC50). As to conditions: Homo sapiens, THP1-Dual. Type of experiment: cell-based. From the text:
(§1) 6.2 Method: Human cGAS Cell Assay and cGAMP Stimulated Counter Cell Assay (THP1(vir) IC50 and THP1(cGAMP) IC50)
(§2) THP1-Dual™ cells (InvivoGen #thpd-nfis) expressing IRF dependent Lucia luciferase reporter were used as basis for both assays. For the detection of cellular cGAS activity cells were stimulated by a baculovirus (pFastbac-1, Invitrogen, no coding insert) infection that delivers the cGAS enzyme stimulating double-stranded DNA (measurement of THP1(vir) IC50).
(§3) For the counter assay, cells were stimulated by cGAMP (SigmaAldrich #SML1232) to activate the identical pathway independent and directly downstream of cGAS (measurement of THP1(cGAMP) IC50). Pathway activity was monitored by measuring the Lucia luciferase activity induced by either DNA stimulated cGAS enzyme activity (measurement of THP1(vir) IC50) or by cGAMP directly (measurement of THP1(cGAMP) IC50, counter assay).
(§4) Compounds were delivered in 10 mM DMSO solution, serially diluted and transferred to the 384 well assay plate (Greiner #781201) using an Echo acoustic dispenser. Typically, 8 concentrations were used with the highest concentration at 10 μM in the final assay volume followed by ˜1:5 dilution steps. DMSO concentration was set to 1% in the final assay volume. The 384 well assay plate contained 21 test compounds (column 1-22), and DMSO in column 23 and 24.
(§5) Cells, cultivated according to manufacturer conditions, were harvested by centrifugation at 300 g/10 min and were then resuspended and diluted to 1.66E5 cells/ml in fresh cell culture medium (RPMI 1640 (Gibco #A10491-01), 10% FCS (Gibco #10500), 1× GlutaMax (Gibco #35050-061), 1× Pen/Strep solution (Gibco #15140-122), 100 μg/ml Normocin (InvivoGen #ant-nr), 100 μg/ml Zeocin (InvivoGen #ant-zn), 10 μg/ml Blasticidin S (Life Technologies #A11139-03)). The baculovirus solution was then added 1:200 (have varied according to virus batch) to the cells (measurement of THP1(vir) IC50).
(§6) 30 μL of the cell/virus-mix were added to each well of the compound plate from column 1-23 via MultiDrop Combi dispenser (5000 cells/well). In column 24, 30 μl/5000 cells/well without virus were added as a low control.
(§7) The plates were then incubated for 18 h at 37° C. in a humidified incubator.
(§8) Following that, 15 μl of QuantiLuc detection reagent (InvivoGen #rep-qlcg5) were added to each well using a MultiDrop Combi. Measurement was done immediately after the addition using an EnVision reader (US-luminescence read-mode).
(§9) For data evaluation and calculation, the measurement of the low control was set as 0% control and the measurement of the high control was set as 100% control. The IC50 values were calculated using the standard 4 parameter logistic regression formula. Calculation: [y=(a−d)/(1+(x/c)^b)+d], a=low value, d=high value; x=conc M; c=IC50 M; b=slope

The test system of experiment [2] is cGAMP-stimulated THP1-Dual cells (pathway directly downstream of cGAS). Put plainly: cGAMP stimulated counter cell assay: inhibition of IFN induction in cGAMP-stimulated THP1 cells (THP1(cGAMP) IC50). The experiment is classed as cell-based, human. The settings on record: for IC50: Homo sapiens, THP1-Dual; for Ratio THP1(cGAMP) IC50 / THP1(vir) IC50: selectivity for cGAS inhibition.
From the text: as §1, §2, §3, §4, §5, §6, §7, §8, §9

Experiment [3] relates to cellular cGAS activity in dsDNA-stimulated human whole blood. As to the kind of experiment: Human whole blood assay (hWB IC50): IFNα2α production after dsDNA transfection. Type of experiment: cell-based. As to conditions: inhibition of IFN induction in dsDNA-stimulated human whole blood. How it is done:
6.3 Method: Human Whole Blood Assay (Human WB IC50)
For the detection of cellular cGAS activity human whole blood was stimulated by transfection with double stranded DNA. Pathway activity was monitored by measuring the IFNα2α production.
Compounds were delivered as 10 mM DMSO solution and serially diluted and transferred to the 96-well cell culture plate (Corning #3595), prefilled with 20 μl OptiMEM (Gibco, #11058-021) in each well, using an Echo acoustic dispenser. Typically, 8 concentrations were used with the highest concentration at 10 µM in the final assay volume followed by ˜1:5 dilution steps. DMSO concentration was set to 0.1% in the final assay volume. The 96-well assay plate contained 10 test compounds, and DMSO in control wells.
Collection of human whole blood from 3 or more healthy donors (male or female, no medication for 7 days except contraceptive and thyroxine) as Na-Citrate blood (e.g. 3.8% in Monovettes from Sarstedt) was conducted in parallel. Whole blood was kept at room temperature for a maximum of 3 hours after collection until use in the assay.
160 μl of the whole blood samples was transferred to each well of the 96-well assay plates filled with compound/OptiMEM. All assay plates were prepared as duplicates with blood from different donors. Blood plates were kept at room temperature for 60 minutes and continuous shaking with 450 rpm, covered with the lid, but not sealed.
20 μl OptiMEM and 9.6:1 Fugene was added to all low control wells.
After covering assay plates with aera seals and the lid, blood plates were kept at room temperature for 30 minutes and continuous shaking with 450 rpm, followed by an overnight incubation of 22 h at 37° C. in the incubator, without shaking.
For the detection of IFNα-2α in human plasma, the biotinylated capture antibody (Antibody set IFNA2, Meso Scale Diagnostics #B21VH-3, including coating and capture antibody) was diluted 1:17.5 in Diluent 100 (Meso Scale Diagnostics #R^50AA-4), according to the manufacturer's directions. U-Plex MSD GOLD 96-well Small Spot Strepavidin SECTOR Plates (Meso Scale Diagnostics #L45SA-5) were coated with 25 μl diluted capture antibody. Coated plates were incubated for 60 min at room temperature under continuous shaking at 700 rpm. MSD IFNα-2α plates were washed three times with 150 μl wash buffer (1x HBSS, 0.05% Tween).
After blocking the plates with 100 μl block solution/well (1x HBSS with 0.2% Tween, 2% BSA) for 60 min at room temperature and continuous shaking at 700 rpm, plates were emptied as dry as possible by dumping just before continuing with the human plasma.
Whole Blood assay plates were centrifuged at 1600 rpm for 10 minutes. 25 μl of supernatant was transferred with a pipetting robot from each whole blood plate to the corresponding IFNα-2α plate. Plates were sealed with microplate seals and kept at room temperature again under continuous shaking at 700 rpm for two hours.
Next MSD IFNα-2α plates were washed three times with 150 μl wash buffer (1×HBSS, 0.05% Tween), before adding 25 μl MSD SULFO-TAG IFNα-2α Antibody solution (1:100 diluted in Diluent 3 (Meso Scale Diagnostics #R50AP-2) to each well of the plates.
Afterwards plates were sealed with microplate seals and kept at room temperature again under continuous shaking at 700 rpm for two hours. Finally, MSD IFNα-2α plates were washed three times with 150 μl wash buffer (1×HBSS, 0.05% Tween). 150 μl 2× Read buffer was added to each well and plates were immediately measured with the MSD Sector S600 Reader using the vendor barcode.
For data evaluation and calculation, % control calculation of each well was based on the mean of high (DNA stimulated control) and mean of low (unstimulated control) controls by using the following formula:
[counts(sample)−counts(low))/(counts(high)−counts(low))]*100
The IC50 values were calculated using the standard 4 parameter logistic regression formula. Calculation: [y=(a−d)/(1+(x/c)^b)+d], a=low value, d=high value; x=conc M; c=IC50 M; b=slope

The mark [4] stands for this setting: inhibition of IFN induction in virus-stimulated THP1 cells, read-out: THP1(vir) IC50.
[5] abbreviates: inhibition of IFN induction in cGAMP-stimulated THP1 cells, read-out: THP1(cGAMP) IC50 (converted).

Like-named read-outs stand apart in the source and are kept apart here.

Chain of cGAS (Q8N884 whole entry): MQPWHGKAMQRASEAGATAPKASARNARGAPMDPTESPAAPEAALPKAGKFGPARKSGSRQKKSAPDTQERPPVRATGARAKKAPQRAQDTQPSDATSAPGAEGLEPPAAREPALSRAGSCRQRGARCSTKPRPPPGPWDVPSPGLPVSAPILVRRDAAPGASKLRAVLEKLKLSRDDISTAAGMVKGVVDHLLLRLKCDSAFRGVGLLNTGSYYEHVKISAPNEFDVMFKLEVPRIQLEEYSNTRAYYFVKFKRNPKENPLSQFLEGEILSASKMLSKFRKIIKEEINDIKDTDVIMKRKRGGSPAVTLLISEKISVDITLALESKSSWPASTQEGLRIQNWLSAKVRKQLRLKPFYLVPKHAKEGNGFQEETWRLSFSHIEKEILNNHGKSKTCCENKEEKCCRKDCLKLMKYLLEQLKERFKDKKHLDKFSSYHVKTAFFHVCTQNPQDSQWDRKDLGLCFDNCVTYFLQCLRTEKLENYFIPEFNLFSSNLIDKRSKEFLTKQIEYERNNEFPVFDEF

As to `C#Cc1cnc(O[C@H]2C[C@@H](C(=O)O)N(c3nc(C(C)(F)F)nc4c3oc3ccccc34)C2)c(N2CCOC3(COC3)[C@@H]2C)c1` [Example 1.14], the IC50 against cGAS is 3 nM; in experiment [1] (setting [4]), 6 nM; in experiment [2] (setting [5]), greater than 16.6 µM; in experiment [3], 7 nM. In experiment [2], the “Ratio THP1(cGAMP) IC50 / THP1(vir) IC50” value was greater than 2708.

With `C[C@@H]1N(c2cc(-c3cnn(C(F)(F)F)c3)cnc2O[C@H]2C[C@@H](C(=O)O)N(c3nc(C(F)(F)F)nc4c3oc3ccccc34)C2)CCOC12COC2` [Example 3.30], the IC50 against cGAS was 26 nM; in experiment [1] (setting [4]), 15 nM; in experiment [2] (setting [5]), 12.6 µM; in experiment [3] it was 84 nM. Moreover, in experiment [2], the “Ratio THP1(cGAMP) IC50 / THP1(vir) IC50” value is given as 829.

As for `C#Cc1cnc(O[C@H]2C[C@@H](C(=O)O)N(c3nc(C(F)F)nc4c3oc3ccccc34)C2)c(N2CCCC3(COC3)[C@@H]2C)c1` [Example 1.23], the IC50 against cGAS was 4 nM; in experiment [1] (setting [4]), 10 nM; in experiment [2] (setting [5]), 10.9 µM; in experiment [3], 12 nM. In addition, the “Ratio THP1(cGAMP) IC50 / THP1(vir) IC50” value in experiment [2] came to 1134.

Turning to `C#Cc1cnc(O[C@H]2C[C@@H](C(=O)O)N(c3nc(C(F)(F)F)nc4c3oc3ccccc34)C2)c(N2CCCC3(COC3)[C@@H]2C)c1` [Example 1.22], the IC50 at cGAS is 5 nM; in experiment [1] (setting [4]), 21 nM; in experiment [2] (setting [5]), 7.64 µM; in experiment [3], 29 nM. In addition, the “Ratio THP1(cGAMP) IC50 / THP1(vir) IC50” value in experiment [2] was 355.

Take `C[C@@H]1N(c2cc(-n3cccn3)cnc2O[C@H]2C[C@@H](C(=O)O)N(c3nc(C(F)(F)F)nc4c3oc3ccccc34)C2)CCOC12COC2` [Example 10.01, (2S,4S)-4-({3-[(95)-9-methyl-2,5-dioxa-8-azaspiro[3.5]nonan-8-yl]-5-(1H-pyrazol-1-yl)pyridin-2-yl}oxy)-1-[4-(trifluoromethyl)-8-oxa-3,5-diazatricyclo[7.4.0.0^2,7]trideca-1(9),2(7),3,5,10,12-hexaen-6-yl]pyrrolidine-2-carboxylic acid]: the IC50 was 5 nM at cGAS, 10 nM in experiment [1] (setting [4]), greater than 10 µM in experiment [2] (setting [5]) and 47 nM in experiment [3]. Moreover, the “Ratio THP1(cGAMP) IC50 / THP1(vir) IC50” value in experiment [2] is given as greater than 1000.

`CSc1cc(-c2cnc(O[C@H]3C[C@@H](C(=O)O)N(c4nc(C(F)F)nc5c4oc4ccccc45)C3)c(N3CCOC4(COC4)[C@@H]3C)c2)ccn1` [Example 3.16, (2S,4S)-1-[4-(difluoromethyl)-8-oxa-3,5-diazatricyclo-[7.4.0.0^2.7]trideca-1(9),2(7),3,5,10,12-hexaen-6-yl]-4-({5-[(9S)-9-methyl-2,5-dioxa-8-azaspiro[3.5]nonan-8-yl]-2′-(methylsulfanyl)-[3,4′-bipyridin]-6-yl}oxy)-pyrrolidine-2-carboxylic acid]: the IC50 against cGAS is 15 nM; in experiment [1] (setting [4]), 19 nM; in experiment [2] (setting [5]), 11.8 µM; in experiment [3] it was 38 nM. In experiment [2], the “Ratio THP1(cGAMP) IC50 / THP1(vir) IC50” value was 629.

Turning to `COc1cc(-c2cnc(O[C@H]3C[C@@H](C(=O)O)N(c4nc(C(F)(F)F)nc5c4oc4ccccc45)C3)c(N3CCOC[C@@H]3C)c2)ccn1` [Example 3.05], the IC50 was 14 nM on cGAS, 523 nM in experiment [1] (setting [4]), 6.71 µM in experiment [2] (setting [5]) and 1830 nM in experiment [3]. The “Ratio THP1(cGAMP) IC50 / THP1(vir) IC50” value in experiment [2] is 13.

Turning to `C#Cc1cnc(O[C@H]2C[C@@H](C(=O)O)N(c3nc(C(F)(F)C(F)(F)F)nc4c3oc3ccccc34)C2)c(N2CCOC3(COC3)[C@@H]2C)c1` [Example 1.17], the IC50 against cGAS was 17 nM; in experiment [1] (setting [4]), 154 nM; in experiment [2] (setting [5]), greater than 16.6 µM; in experiment [3], 305 nM. The “Ratio THP1(cGAMP) IC50 / THP1(vir) IC50” value in experiment [2] is greater than 108.

`C#Cc1cnc(O[C@H]2C[C@@H](C(=O)O)N(c3nc(C(F)(F)F)nc4c3oc3cc(CC)ccc34)C2)c(N2CCOC3(COC3)[C@@H]2C)c1` [Example 2.09]: the IC50 against cGAS is 6 nM; in experiment [1] (setting [4]), 31 nM; in experiment [2] (setting [5]), 5.18 µM; in experiment [3], 37 nM. For the same compound, the “Ratio THP1(cGAMP) IC50 / THP1(vir) IC50” value in experiment [2] was 166.

Consider `COc1cc(-c2cnc(O[C@H]3C[C@@H](C(=O)O)N(c4nc(C(F)F)nc5c4oc4ccccc45)C3)c(N3CCOC4(COC4)[C@@H]3C)c2)c(F)cn1` [Example 3.32], for which the IC50 against cGAS was 9 nM; in experiment [1] (setting [4]), 2 nM; in experiment [2] (setting [5]), 12.9 µM; in experiment [3], 17 nM. In experiment [2], the “Ratio THP1(cGAMP) IC50 / THP1(vir) IC50” value came out at 5194.

On to `C#Cc1cnc(O[C@H]2C[C@@H](C(=O)O)N(c3nc(C(F)F)nc4c3oc3ccccc34)C2)c(N2CCOC3(COC3)C2)c1` [Example 1.25], for which the IC50 was 517 nM in experiment [1] (read-out: THP1(vir) IC50, inhibition of IFN induction in virus-stimulated THP1 cells); greater than 16.6 µM in experiment [2] (read-out: THP1(cGAMP) IC50); 551 nM in experiment [3]. For the same compound, the “Ratio THP1(cGAMP) IC50 / THP1(vir) IC50” value in experiment [2] is greater than 32.

These data come from patent US20240342186A1, “PYRIDINE DERIVATIVES WITH N-LINKED CYCLIC SUBSTITUENTS AS cGAS INHIBITORS” (Boehringer Ingelheim International GmbH, priority 2021, published 2024).
